Reference: patent US20210128596A1, “COMPOSITIONS AND METHODS FOR TREATING SEPTIC CARDIOMYOPATHY” (UNIVERSITY OF PENNSYLVANIA, priority 2017, published 2021)
Entries after “also recorded” stand apart in the source; their conditions may differ.

What was measured:
AC16 cells = test: mRNA levels of fusion and fission markers, quantitative PCR, LPS; type: cell-based, human
Protocol: AC16 cells were either left untreated or treated with Liposaccharide (LPS) in the absence or presence of SDG; the levels of DRP1, Opa, MFN1, MFN2, and FIS1 mRNAs were measured in quantitative PCR.
(§1) RNA purification and gene expression analysis—Total RNA was purified from AC16 cells or hearts using the TRIzol reagent according to the instructions of the manufacturer (Invitrogen). DNase-treated RNA was used for cDNA synthesis using the ProtoScript II First Strand cDNA Synthesis Kit (New England Biolabs). Quantitative real-time PCR was performed with the Sybr Select Master Mix (Applied Biosystems). Incorporation of the SYBR green dye into the PCR products was monitored with the Applied Biosystems StepOnePlus Real-Time PCR System. Samples were normalized against mouse 36B4 or human rps13 RNA.

MCU and MICU1 = MCU and MICU1 expression in heart tissue of CLP mice; type: in vivo, mouse
Protocol: Mice were either sham treated (n=3) or subjected to cecal ligation puncture (CLP, n=6). SDG was administered to three mice following CLP.
as §1
Protein purification and analysis—Isolated heart tissue or AC16 cells were homogenized in radioimmune precipitation assay buffer containing protease and phosphatase inhibitors (Pierce Protease and Phosphatase Inhibitor Mini Tablets, Thermo Scientific). 30-50 μg of total protein extract was applied to SDS-PAGE and transferred onto nitrocellulose membranes.

[1] = tested on: ventricular tissue of septic mice; test: Glucose and fatty-acid metabolism related gene expression in ventricular tissue; type: in vivo, mouse
Protocol: as §1

[2] = Plasma glucose and triglyceride levels in septic mice; type: in vivo, mouse
[3] = tested on: adult cardiomyocytes isolated from septic mice; test: Mitotracker Red staining of adult cardiomyocytes isolated from septic mice; type: in vivo, mouse; settings: adult cardiomyocytes isolated 12 hours post-CLP
Protocol: Adult mouse cardiomyocytes isolation-Adult mouse cardiomyocytes (ACMs) were isolated from ventricles of C57BL/6 mice 12 hours post-sham surgery, CLP surgery or combined performance of CLP and treatment with LGM2605 at 6 hours post-surgery. Hearts from heparinized mice (90 USP; ip) were cannulated through the aorta. Hearts were perfused with perfusion buffer (120.4 mMNaCl, 14.7 mM KCL, 0.6 mM NaH2PO4, 0.6 mM KH2PO4, 1.2 mM MgSO4, 10 mM Hepes, 4.6 mM NaHCO3, 30 mMtaurine, 10 mM BDM, 5.5 mM glucose; pH 7.4) for 3 min followed by digestion with perfusion buffer containing 19250 units Collagenese type II (Worthington), 5-6 mg trypsin and 0.02 mM CaCl2 for 7 min. Ventricles were gently […] into small pieces, perfusion buffer containing 5 mg/ml BSA and 0.125 mM CaCl2 was added and filtered with 100 μm nylon. The filtrate was pelleted by gravity for 5 min, centrifuged for 30 sec at 700 rpm and the pellet resuspended in perfusion buffer containing 5 mg/ml BSA and 0.225 mM CaCl2. The cells were pelleted by gravity for 10 min, centrifuged for 30 sec at 700 rpm and the pellet resuspended in perfusion buffer containing 5 mg/ml BSA and 0.525 mM CaCl2. […] Mitotracker Red fluorescence was recorded at 581 (excitation) and 644 nm (emission).

[4] = tested on: permeabilized adult cardiomyocytes; test: Calcium uptake assay in permeabilized adult cardiomyocytes; type: in vivo, mouse; settings: cardiomyocytes isolated 12 h after CLP, 6 h after LGM2605
Protocol: Calcium uptake assay in permeabilized adult cardiomyocytes Cardiomyocytes were isolated from mice 12 hours after CLP or sham surgery and 6 hours after LGM2605 or saline injection. Calcium uptake was performed as previously described^22 and detailed below. Before permeabilization, cardiomyocytes were washed in a Ca free buffer (120 mM NaCl, 5 mM KCL 1 mM KH2PO4, 0.2 mM MgCl2, 0.1 mM EGTA and 20 mM HEPES-NaOH, at pH 7.4) and stored on ice for at least 10 min. Cardiomyocytes were pelleted by centrifugation and transferred to an intracellular-like medium (permeabilization buffer: 120 mM KCl, 10 mM. NaCl, 1 mM KH2PO4, 20 mM, 4 HEPES-Tris, at pH 7.2, protease inhibitors (EDTA-free complete tablets, Roche Applied Science), 2 μM thapsigargin and digitonin (40 μg ml^−1)). The cell suspension supplemented with succinate (2 mM) was placed in a fluorimeter and permeabilized by gentle stirring. Fura2FF (0.5 μM) was added at 0 s, and JC-1 (800 nM) at 20 s. Fluorescence signal was monitored in a temperature-controlled (37° C.) multiwavelength-excitation dual-wavelength-emission spectrofluorometer (Delta RAM, Photon Technology International) using 490-nm excitation/535-nm emission for the JC-1 monomer. 570-nm excitation/595-nm emission for the J-aggregate of JC-1 and 340-nm/380-nm for Fura2FF. At 400 s, a single 10 μM Ca^2+ pulse was added, and changes in cytosolic [Ca^2] was monitored. […]

[5] = ventricular tissue 12 hours after CLP

For `COc1cc(C[C@@H](CO[C@@H]2O[C@H](CO)[C@@H](O)[C@H](O)[C@H]2O)[C@H](CO[C@@H]2O[C@H](CO)[C@@H](O)[C@H](O)[C@H]2O)Cc2ccc(O)c(OC)c2)ccc1O` [LGM2605, secoisolariciresinol diglucoside], the “levels of DRP1, Opa, MFN1, MFN2, and FIS1 mRNAs” value (AC16 cells; 6-hour LPS treatment (FIG. 8A)) was “restored the levels of all the markers”, the “levels of DRP1, Opa, MFN1, MFN2, and FIS1 mRNAs” value (AC16 cells; 12 hour LPS treatment (FIG. 8B)) was “restored the levels of all the markers, although only the change in MFN2 levels was statistically significant” and the “MCU protein level (western blot)” value (MCU and MICU1; heart tissue, SDG following CLP, listed as SDG) was “increases MCU protein level; also recorded: increased protein expression of the mitochondrial calcium uniporter”. The “MCU and MICU1 mRNA and protein expression” value (MCU and MICU1; ventricular tissue 12 hours post-CLP, LGM2605 6 hrs post-CLP) was “did not affect expression of these proteins”, the “expression of fatty acid oxidation and glucose metabolism-related genes” value ([1]; CLP mice treated with SDG) was “did not restore the expression of fatty acid oxidation and glucose metabolism-related genes” and the “PPARα and LCAD expression” value [1, 5] was “did not reverse the CLP-mediated changes in the PPARα and LCAD”. For the same molecule, the “cardiac PDK4 mRNA levels” value [1, 5] was “This increase was not alleviated by administration of LGM2605”, the plasma glucose levels ([2]; 6 hours and 12 hours post-CLP) was “hypoglycemia in septic mice was not alleviated by the administration of LGM2605” and the plasma triglyceride levels ([2]; 12 hours after surgery) was “trend of increase, which did not occur in septic mice treated with LGM2605”. The “mitochondrial abundance (Mitotracker staining)” value [3] was “prevents CLP-associated reduction in mitochondrial abundance”, the “mitochondrial abundance (Mitotracker staining)” value ([3]; listed as SDG) was “restored mitochondrial abundance in vitro and in vivo” and the mitochondrial calcium uptake [4] was “increased mitochondrial Ca^2+ uptake rate and release of Ca^2+ following CCCP administration beyond that observed for sham operated mice”. The mitochondrial calcium uptake ([4]; listed as SDG) was “mitochondrial calcium uptake was increased”.
